The target of this assay is T1, Recombinant human EP300 containing the bromodomain (EP300-BD (1040-1161)) (Homo sapiens, UniProt Q09472).
T1 construct: Recombinant human EP300 bromodomain (EP300-BD (1040-1161)); made in house; host or cells: E. coli BL21-CodonPlus (DE3), modified pET vector
T1 sequence (Q09472 1040-1161): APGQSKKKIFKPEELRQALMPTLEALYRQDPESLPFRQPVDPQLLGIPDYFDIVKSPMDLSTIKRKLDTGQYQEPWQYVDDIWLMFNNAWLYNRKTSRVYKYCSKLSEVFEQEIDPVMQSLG
Briefly: EP300 Alphascreen binding assay. In short, it runs like this:
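Displacement of a biotinylated acetyl-K56 histone H3 peptide from the N-His bromodomain construct (1040-1161) measured by AlphaScreen proximity, beads at 7.5 μg/ml final, read 60 min after addition. Protein, peptide and compound first incubated 1 h at room temperature, pH 7.5 HEPES buffer; IC50 by four-parameter logistic fit.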
For orientation: Alpha assays give light when donor and acceptor beads are brought close together.

The IC50 is the point on the concentration scale where inhibition reaches its midpoint. In the case of `Cc1noc(C)c1-c1cnc2c(c1)c(-c1ccc(C(=O)O)cc1OC(F)(F)F)cn2-c1cnc(N)nc1` [P-0320, 4-(1-(2-aminopyrimidin-5-yl)-5-(3,5-dimethylisoxazol-4-yl)-1H-pyrrolo[2,3-b]pyridin-3-yl)-3-(trifluoromethoxy)benzoic acid], the IC50 was in the range of 0.1 to 1000 nM.
`Cc1noc(C)c1-c1cnc2c(c1)c(-c1ccc(C(=O)O)cc1OC(F)(F)F)cn2-c1cnc(N(C)C)nc1` [P-0321]: the IC50 fell in the range of 0.1 to 1000 nM.
Consider `Cc1noc(C)c1-c1cnc2c(c1)c(-c1ccc(C(=O)O)cc1OC(F)(F)F)cn2-c1ccc(C(=O)O)cc1` [P-0322, 4-(1-(4-carboxyphenyl)-5-(3,5-dimethylisoxazol-4-yl)-1H-pyrrolo[2,3-b]pyridin-3-yl)-3-(trifluoromethoxy)benzoic acid], for which the IC50 was 0.1 to 1000 nM.
Regarding `Cc1noc(C)c1-c1cnc2c(c1)c(-c1ccc(C(=O)O)cc1OC(F)(F)F)cn2-c1ccc(C(N)=O)cc1` [P-0323, 4-(1-(4-carbamoylphenyl)-5-(3,5-dimethylisoxazol-4-yl)-1H-pyrrolo[2,3-b]pyridin-3-yl)-3-(trifluoromethoxy)benzoic acid], the IC50 was 0.1 to 1000 nM.
For `COc1cc(C(=O)O)ncc1-c1cn(-c2ccncc2Cl)c2ncc(-c3c(C)noc3C)cc12` [P-0324, 5-(1-(3-chloropyridin-4-yl)-5-(3,5-dimethylisoxazol-4-yl)-1H-pyrrolo[2,3-b]pyridin-3-yl)-4-methoxypicolinic acid], the IC50 was 0.1 to 1000 nM.
As for `Cc1noc(C)c1-c1cnc2c(c1)c(-c1ccc(C(=O)O)cc1OCC(F)F)cn2[C@H]1CCOC1` [P-0325, (S)-3-(2,2-difluoroethoxy)-4-(5-(3,5-dimethylisoxazol-4-yl)-1-(tetrahydrofuran-3-yl)-1H-pyrrolo[2,3-b]pyridin-3-yl)benzoic acid], the IC50 is 0.1 to 1000 nM.
Regarding `CCn1cc(-n2cc(-c3ccc(C(=O)O)cc3OCC(F)F)c3cc(-c4c(C)noc4C)cnc32)c(C)n1` [P-0326, 3-(2,2-difluoroethoxy)-4-(5-(3,5-dimethylisoxazol-4-yl)-1-(1-ethyl-3-methyl-1H-pyrazol-4-yl)-1H-pyrrolo[2,3-b]pyridin-3-yl)benzoic acid], the IC50 fell in the range of 0.1 to 1000 nM.
In the case of `Cc1noc(C)c1-c1cnc2c(c1)c(-c1c(F)cc(C(=O)O)cc1OCC(F)F)cn2-c1ccccc1` [P-0327, 3-(2,2-difluoroethoxy)-4-(5-(3,5-dimethylisoxazol-4-yl)-1-phenyl-1H-pyrrolo[2,3-b]pyridin-3-yl)-5-fluorobenzoic acid] it was 0.1 to 1000 nM; in that of `Cc1noc(C)c1-c1cnc2c(c1)c(-c1ccc(C(=O)O)cc1OCC(F)F)cn2-c1cnc(N2CCC2)nc1` [P-0328, 4-(1-(2-(azetidin-1-yl)pyrimidin-5-yl)-5-(3,5-dimethylisoxazol-4-yl)-1H-pyrrolo[2,3-b]pyridin-3-yl)-3-(2,2-difluoroethoxy)benzoic acid], 0.1 to 1000 nM.
On to `CCOc1cc(C(=O)O)nc(OCC)c1-c1cn(-c2ccc(F)cc2F)c2ncc(-c3c(C)noc3C)cc12` [P-0329, 5-(1-(2,4-difluorophenyl)-5-(3,5-dimethylisoxazol-4-yl)-1H-pyrrolo[2,3-b]pyridin-3-yl)-4,6-diethoxypicolinic acid], for which the IC50 lay within 0.1 to 1000 nM.
With `CCOc1cc(C(=O)O)c(F)cc1-c1cn(-c2ccc(F)cc2F)c2ncc(-c3c(C)noc3C)cc12` [P-0330, 4-(1-(2,4-difluorophenyl)-5-(3,5-dimethylisoxazol-4-yl)-1H-pyrrolo[2,3-b]pyridin-3-yl)-5-ethoxy-2-fluorobenzoic acid], the 50% inhibitory concentration (IC50) fell in the range of 0.1 to 1000 nM.
With `Cc1noc(C)c1-c1cnc2c(c1)c(-c1c(Cl)cc(C(=O)O)cc1OCC(F)F)cn2-c1cnc(N2CCC2)nc1` [P-0331, 4-(1-(2-(azetidin-1-yl)pyrimidin-5-yl)-5-(3,5-dimethylisoxazol-4-yl)-1H-pyrrolo[2,3-b]pyridin-3-yl)-3-chloro-5-(2,2-difluoroethoxy)benzoic acid], the IC50 fell in the range of 0.1 to 1000 nM.
Turning to `Cc1noc(C)c1-c1cnc2c(c1)c(-c1c(Cl)cc(C(=O)O)cc1OCC(F)F)cn2-c1ccccc1` [P-0332, 3-chloro-5-(2,2-difluoroethoxy)-4-(5-(3,5-dimethylisoxazol-4-yl)-1-phenyl-1H-pyrrolo[2,3-b]pyridin-3-yl)benzoic acid], the IC50 is 0.1 to 1000 nM.
As to `Cc1noc(C)c1-c1cnc2c(c1)c(-c1c(Cl)cc(C(=O)O)cc1OCC(F)F)cn2[C@H]1CCOC1` [P-0333, (S)-3-chloro-5-(2,2-difluoroethoxy)-4-(5-(3,5-dimethylisoxazol-4-yl)-1-(tetrahydrofuran-3-yl)-1H-pyrrolo[2,3-b]pyridin-3-yl)benzoic acid], the IC50 was in the range of 0.1 to 1000 nM.
Turning to `Cc1noc(C)c1-c1cnc2c(c1)c(-c1ccc(C(=O)O)cc1OC1CCC1)cn2-c1ncccc1C#N` [P-0334, 4-(1-(3-cyanopyridin-2-yl)-5-(3,5-dimethylisoxazol-4-yl)-1H-pyrrolo[2,3-b]pyridin-3-yl)-3-cyclobutoxybenzoic acid], the IC50 is 0.1 to 1000 nM.
Regarding `Cc1noc(C)c1-c1cnc2c(c1)c(-c1ccc(C(=O)O)cc1OC(F)(F)F)cn2C1(CC#N)CCC1` [P-0335, 4-(1-(1-(cyanomethyl)cyclobutyl)-5-(3,5-dimethylisoxazol-4-yl)-1H-pyrrolo[2,3-b]pyridin-3-yl)-3-(trifluoromethoxy)benzoic acid], the IC50 is 0.1 to 1000 nM.
On to `Cc1noc(C)c1-c1cnc2c(c1)c(-c1ccc(C(=O)O)cc1OC(C)C)cn2-c1ncccc1C#N` [P-0336, 4-(1-(3-cyanopyridin-2-yl)-5-(3,5-dimethylisoxazol-4-yl)-1H-pyrrolo[2,3-b]pyridin-3-yl)-3-isopropoxybenzoic acid], for which the IC50 is 0.1 to 1000 nM.
In the case of `Cc1noc(C)c1-c1cnc2c(c1)c(-c1ccc(C(=O)O)cc1OC1CC1)cn2-c1ncccc1C#N` [P-0337, 4-(1-(3-cyanopyridin-2-yl)-5-(3,5-dimethylisoxazol-4-yl)-1H-pyrrolo[2,3-b]pyridin-3-yl)-3-cyclopropoxybenzoic acid], the IC50 was 0.1 to 1000 nM.
As to `Cc1noc(C)c1-c1cnc2c(c1)c(-c1ccc(C(=O)O)cc1OCC(F)F)cn2C(C1CC1)C1CC1` [P-0338, 4-(1-(dicyclopropylmethyl)-5-(3,5-dimethylisoxazol-4-yl)-1H-pyrrolo[2,3-b]pyridin-3-yl)-3-(2,2-difluoroethoxy)benzoic acid], the IC50 is 0.1 to 1000 nM.
As for `COc1cc(C(=O)O)ncc1-c1cn(C(C2CC2)C2CC2)c2ncc(-c3c(C)noc3C)cc12` [P-0339, 5-(1-(dicyclopropylmethyl)-5-(3,5-dimethylisoxazol-4-yl)-1H-pyrrolo[2,3-b]pyridin-3-yl)-4-methoxypicolinic acid], the IC50 fell in the range of 0.1 to 1000 nM.
As for `Cc1noc(C)c1-c1cnc2c(c1)c(-c1c(Cl)cc(C(=O)O)cc1OCC(F)F)cn2C(C1CC1)C1CC1` [P-0340, 3-chloro-4-(1-(dicyclopropylmethyl)-5-(3,5-dimethylisoxazol-4-yl)-1H-pyrrolo[2,3-b]pyridin-3-yl)-5-(2,2-difluoroethoxy)benzoic acid], the IC50 was 0.1 to 1000 nM.
For `Cc1noc(C)c1-c1cnc2c(c1)c(-c1ccc(C(=O)O)cc1OC1CCC1)cn2C1CCOCC1` [P-0341, 3-cyclobutoxy-4-(5-(3,5-dimethylisoxazol-4-yl)-1-(tetrahydro-2H-pyran-4-yl)-1H-pyrrolo[2,3-b]pyridin-3-yl)benzoic acid], the IC50 is 0.1 to 1000 nM.

Values taken from patent US11446287B2, “Compounds and methods for EP300 or CBP modulation and indications therefor” (Opna Immuno-Oncology SA, priority 2019, dated 2022).
